{
  "source": "patent US20220340597A1",
  "about": "“HEXAHYDRO-1H-PYRAZINO[1,2-A]PYRAZINE COMPOUNDS FOR THE TREATMENT OF AUTOIMMUNE DISEASE” (Hoffmann-La Roche Inc., priority 2019, published 2022)",
  "key": {"[1]": {"tested_on": "Balb/c 3T3 mouse fibroblasts", "assay": "3T3 in vitro phototoxicity assay (Neutral Red uptake)", "type": "cell-based", "details": "for Phototoxicity factor: Factor=IC50(-UV)/IC50(+UV), cut-off >5; for IC50: Mus musculus, BALB/c3T3, light or radiation study, with approx. 5 J/cm2 UVA light, Neutral Red uptake", "excerpt": "3T3 In Vitro Phototoxicity Assay\nPhototoxicity is defined as a toxic response that is elicited after the first exposure of the skin to certain chemicals and subsequent exposure to light, or that is induced similarly by skin irradiation after systemic administration of a chemical substance. The assay used in this study is designed to detect the phototoxic potential of a chemical by using a simple in vitro cytotoxicity assay with Balb/c 3T3 mouse fibroblasts. The principle of this test is a comparison of the cytotoxicity of a chemical when tested with and without exposure to a non-toxic dose of UVA-light. Cytotoxicity is expressed as a dose dependent reduction of the growth rate of cells as determined by uptake of the vital dye Neutral Red one day after treatment.\nA small amount of substance was weighed and formulated freshly in DMSO just before the start of the exposure of the cells. This stock solution or appropriate dilutions with DMSO were added to the cell suspensions to obtain the required final concentrations. All solutions were generally prepared in Eppendorf caps and discarded after use.\nChlorpromazine (HCL) (Sigma, Batch/Lot No.: 120M1328V), test concentration: 300 μg/mL, Solvent: PBS/3% DMSO\nFor this study the Neutral Red uptake (NRU) assay of Borenfreund and Puemer (Borenfreund, E, Puemer J A. Toxicity determined in vitro by morphological alterations and Neutral Red absorption. Toxicology Lett. 1985; 24:119-124) modified according to INVITTOX protocol No 78 (ERGATT/FRAME data bank of in vitro techniques in toxicology. INVITTOX PROTOCOL No 78. 3T3 NRU Phototoxicity Assay. March 1994) has been adapted to examine a possible phototoxic potential of the test item. This assay is based on the active uptake of the Neutral Red dye into the lysosomes of cultured murine fibroblasts. Because lysosomal membranes are known to be a site of action of many phototoxic compounds, this assay can provide a measure of potential for phototoxic injury.\nA murine fibroblasts clone A 31 (ATCC no. CCL 163—passage No. 108) were cultured in 175 cm^2 tissue culture grade flasks, containing sDMEM (Dulbecco's […] Essential Medium, supplemented with 10% fetal calf serum, 2 mM L-glutamine, 100 units/ml Penicillin and 100 μg/ml streptomycin) at 37° C. in a humidified atmosphere of 6% CO2. Before cells approach confluence they were removed from flasks by trypsinisation. Prior to use in an assay, the cells were transferred to 96-well microtiter plates at a concentration of 1×10^4 cells/well in 100 μl volumes of sDMEM and allowed to attach for 24 h.\nFor incubation with murine fibroblasts, the test item was diluted in PBS/3% DMSO (detailed concentrations see in results).\nCulture medium (Dulbecco's Modified Eagle Medium (DMEM), GlutaMAX (Gibco Ref 21885-025), 10% Fetal Bovine Serum (FBS) (Gibco Ref 10270-106), 100 IU/ml Penicillin and 100 μg/ml Streptomycin (Gibco Ref 15140-122)) was removed from the wells and murine fibroblasts were washed with PBS. Afterwards 100 μL of PBS/3% DMSO containing the test item was added and target cells were incubated for 1 h at 37° C. with 6% CO2.\nFor each test item the microtiter plates were prepared according to Table 4. “UVA plates” were exposed to approx. 5 J/cm^2 UVA light, the “Dark plates” were kept in the dark and served as cytotoxicity control. Plates with chlorpromazine hydrochloride served as positive control. UV flux was measured with a UV-meter (Dr. Gröbel RM21).\nFollowing UV irradiation, the test item was removed from the wells (one washing step with PBS) and replaced with sDMEM. Target cells were then incubated overnight at 37° C. in 6% CO2.\nEach plate contained wells with cells and solvent but without test item which were either not incubated with Neutral Red solution (0% standard—S1) or were stained with Neutral Red (100% standard—S2) for calculation of the standard cell viability curve. Wells labeled with U01-U08 contained the different test item concentrations. […]"}, "[2]": {"tested_on": "TLR7 agonist-induced lupus-like disease", "assay": "R848 agonist induced mouse lupus nephritis disease model", "type": "in vivo, BALB/c mice", "details": "10 mg/kg orally once daily", "excerpt": "Agonist Induced Mouse Lupus Nephritis Disease Model To assess compound efficacy in vivo against lupus nephritis, we utilized a murine model of TLR7 agonist-induced lupus-like disease, in which TLR7 activation leads to the development of systemic autoimmune symptoms with elevated levels of autoantibodies to double-stranded DNA (anti-dsDNA), inflammatory cytokines such as IP10, as well as multiple organs involvement especially in kidney and spleen. BALB/c mice were purchased from Vital River Laboratories Co., Ltd., Beijing, China. All mice were 7 to 8-week old female. To induce disease, animals were topically treated on the right ear with 100 μg of Resiquimod (R848) solved in 20 μL of acetone for three times per week. Compound or vehicle treatment was administrated orally once daily and 30 minutes prior to the epicutanenous R848 treatment if they were on the same day. Blood samples were collected once weekly to gauge the level of autoantibody against double stranded DNA and multiple cytokines in serum. The total anti-dsDNA Immunoglobulins in serum were measured according to the manufacturer's instruction with a commercially available ELISA assay (Cat #5110, Alpha Diagnostic Inti Inc.). Cytokine levels in serum were measured with a ProcartaPlex immunoassay Kit (Cat #[…], Thermo Fisher). Specifically, 10 μL of premixed magnetic capture beads were added to a DropArray DA-bead plate (Cat #969-CC-BD-05, Curiox). After washing, 10 μL of diluted sera (1:5) was incubated on the DA-bead plate overnight at 4° c. After washing for three times, 5 μL of premixed detection antibody was added to the plate with an incubation for 60 minutes at room temperature. After washing, 10 μL of Streptavidin-PE was added with an incubation for 30 minutes at room temperature. The beads were then re-suspended in 55 μL Reading Buffer. Samples were analyzed with a Luminex 200 (Millipore). Urine samples were collected once weekly with the animals housed in metabolic cages for 24 hours, and were subjected to the measurements of urinary albumin (UALB), urinary creatinine (UCR) and urinary total protein (UTP) with a Roche Cobas 6000 Chemistry Analyzer (Roche Diagnostics, Mannheim, Germany). Tubular protein scores of 0 to 3 were based on the percentage of tubules containing proteinaceous fluid. Grade 1: <25% of tubules affected; Grade 2: 25 to 50% of tubules affected; Grade 3: >50% of tubules affected. Spleens were harvested and weighed upon study termination to evaluate splenomegaly."}},
  "data": [
    {"molecule": "C[C@@H]1CN(c2ccc(C#N)c3ncccc23)C[C@@H]2CN(Cc3ccc4c(c3)CNCC4)CCN21", "note": "[Example 5, 5-[(4R,9aS)-4-methyl-8-(1,2,3,4-tetrahydroisoquinolin-7-ylmethyl)-3,4,6,7,9,9a-hexahydro-1H-pyrazino[1,2-a]pyrazin-2-yl]quinoline-8-carbonitrile]", "values": [
      {"measurement": "Phototoxicity factor", "setting": "[1]", "result": ">1.39"},
      {"measurement": "IC50", "setting": "[1]", "result": 23.3, "unit": "µg/mL"}
    ]},
    {"molecule": "C[C@@H]1CN(c2ccc(C#N)c3ncccc23)C[C@@H]2CN(c3cccc4c3CNC4)CCN21", "note": "[Example 9, 5-[(4R,9aS)-8-isoindolin-4-yl-4-methyl-3,4,6,7,9,9a-hexahydro-1H-pyrazino[1,2-a]pyrazin-2-yl]quinoline-8-carbonitrile]", "values": [
      {"measurement": "Phototoxicity factor", "setting": "[1]", "result": ">3.9"},
      {"measurement": "IC50", "setting": "[1]", "result": 26.3, "unit": "µg/mL"}
    ]},
    {"molecule": "CO[C@@H]1CN(c2ccc(CCN3CCN4[C@@H](C3)CN(c3ccc(C#N)c5ncccc35)C[C@H]4C)cn2)C[C@H]1N", "note": "[Example 12, 5-[(4R,9aS)-8-[2-[6-[(3R,4R)-3-amino-4-methoxy-pyrrolidin-1-yl]-3-pyridyl]ethyl]-4-methyl-3,4,6,7,9,9a-hexahydro-1H-pyrazino[1,2-a]pyrazin-2-yl]quinoline-8-carbonitrile]", "values": [
      {"measurement": "Phototoxicity factor", "setting": "[1]", "result": ">2.53"}
    ]},
    {"molecule": "CO[C@@H]1CN(c2ccc(CCN3CCN4[C@@H](C3)CN(c3ccc(C#N)n5nccc35)C[C@H]4C)cc2)C[C@H]1N", "note": "[Example 68, 4-[(4R,9aS)-8-[2-[4-[(3R,4R)-3-amino-4-methoxy-pyrrolidin-1-yl]phenyl]ethyl]-4-methyl-3,4,6,7,9,9a-hexahydro-1H-pyrazino[1,2-a]pyrazin-2-yl]pyrazolo[1,5-a]pyridine-7-carbonitrile]", "values": [
      {"measurement": "Phototoxicity factor", "setting": "[1]", "result": 1.53},
      {"measurement": "IC50", "setting": "[1]", "result": 65.9, "unit": "µg/mL"}
    ]},
    {"molecule": "[2H]c1ccc2c(N3C[C@@H]4CN(CCc5ccc(N6C[C@H]7NCCO[C@@H]7C6)nc5)CCN4[C@H](C)C3)ccc(C#N)c2n1", "note": "[Example 77, 5-[(4R,9aS)-8-[2-[6-[(4aR,7aR)-3,4,4a,5,7,7a-hexahydro-2H-pyrrolo[3,4-b][1,4]oxazin-6-yl]-3-pyridyl]ethyl]-4-methyl-3,4,6,7,9,9a-hexahydro-1H-pyrazino[1,2-a]pyrazin-2-yl]-2-deuterio-quinoline-8-carbonitrile]", "values": [
      {"measurement": "Phototoxicity factor", "setting": "[1]", "result": ">1.9"},
      {"measurement": "IC50", "setting": "[1]", "result": 52.5, "unit": "µg/mL"}
    ]},
    {"molecule": "[2H]c1ccc2c(N3C[C@@H]4CN(c5ccc([C@@H]6CNCCO6)cc5)CCN4[C@@H](C)C3)ccc(C#N)c2n1", "note": "[Example 106, 5-[(4S,9aS)-4-methyl-8-[4-[(2R)-morpholin-2-yl]phenyl]-3,4,6,7,9,9a-hexahydro-1H-pyrazino[1,2-a]pyrazin-2-yl]-2-deuterio-quinoline-8-carbonitrile]", "values": [
      {"measurement": "Phototoxicity factor", "setting": "[1]", "result": ">1.67"},
      {"measurement": "IC50", "setting": "[1]", "result": 60.2, "unit": "µg/mL"},
      {"measurement": "production of Interferon gamma-induced protein 10 (IP-10) in serum", "setting": "[2]; after 1 week of treatment (FIG. 3A)", "result": "inhibited"},
      {"measurement": "level of anti-dsDNA autoantibodies in serum", "setting": "[2]; after 2 weeks of treatment (FIG. 3B)", "result": "significantly reduces"},
      {"measurement": "kidney damage / R848-induced proteinuria (UACR)", "setting": "[2]; after 5 weeks of treatment (FIG. 3C)", "result": "no R848-induced proteinuria increase"},
      {"measurement": "splenomegaly / spleen weight", "setting": "[2]; after 6 weeks of treatment (FIG. 3D)", "result": "prevented splenomegaly"}
    ]}
  ]
}
